From patent US9540391B2, “Isomannide derivatives as inhibitors of soluble epoxide hydrolase” (SANOFI, priority 2013, dated 2017) come the findings set out here.

The assay addresses T1, recombinant sEH (Homo sapiens, UniProt P34913).
T1 construct: made in house; host or cells: Sf9 insect cells
T1 sequence (P34913 1-555): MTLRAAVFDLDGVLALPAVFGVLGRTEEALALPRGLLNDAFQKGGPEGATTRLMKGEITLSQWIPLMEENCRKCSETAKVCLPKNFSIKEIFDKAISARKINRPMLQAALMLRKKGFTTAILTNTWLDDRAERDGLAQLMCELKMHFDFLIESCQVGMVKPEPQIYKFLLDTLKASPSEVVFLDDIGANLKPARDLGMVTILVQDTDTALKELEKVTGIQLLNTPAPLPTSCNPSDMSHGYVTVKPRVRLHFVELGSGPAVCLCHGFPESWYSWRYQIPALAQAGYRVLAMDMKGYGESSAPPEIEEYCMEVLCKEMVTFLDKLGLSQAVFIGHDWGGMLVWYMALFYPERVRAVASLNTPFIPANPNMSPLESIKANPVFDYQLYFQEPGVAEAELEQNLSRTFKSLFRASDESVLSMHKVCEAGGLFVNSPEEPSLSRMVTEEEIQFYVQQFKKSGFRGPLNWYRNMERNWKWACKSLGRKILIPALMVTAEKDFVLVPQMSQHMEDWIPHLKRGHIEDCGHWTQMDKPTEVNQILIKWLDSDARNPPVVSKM
Kind of assay: biochemical screening assay for inhibition of soluble epoxide hydrolase (fluorometric, Phome substrate). Put shortly: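 Human sEH from Sf9 cells (2 nM final) was pre-incubated 15 min at 30 °C with compound (0.0001–10 μM), then reacted 60 min at 30 °C with 5 μM Phome in 25 mM Hepes/0.01% albumin. Fluorescence of released 6-methoxy-2-naphthaldehyde was read before substrate and at end; IC50 from % inhibition.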

Structures can show the parent of a compound that is named as a salt.

One may read the IC50 as the concentration that inhibits the measured activity by half. On to `Cc1ncccc1O[C@H]1CO[C@H]2[C@@H]1OC[C@@H]2NC(=O)N1CCCC(F)(F)C1` [Example 278, 3,3-Difluoro-piperidine-1-carboxylic acid [(3S,3aR,6S,6aS)-6-(2-methyl-pyridin-3-yloxy)-hexahydro-furo[3,2-b]furan-3-yl]-amide], for which the IC50 came out at 0.924 µM.
`Cc1ncccc1O[C@H]1CO[C@H]2[C@@H]1OC[C@@H]2NC(=O)NCc1cc(F)ccc1OC(F)(F)F` [Example 279, 1-(5-Fluoro-2-trifluoromethoxy-benzyl)-3-[(3S,3aR,6S,6aS)-6-(2-methyl-pyridin-3-yloxy)-hexahydro-furo[3,2-b]furan-3-yl]-urea]: the 50% inhibitory concentration (IC50) came to 0.001 µM.
Take `Cc1ncccc1O[C@H]1CO[C@H]2[C@@H]1OC[C@@H]2NC(=O)NC1CCC(C(C)(C)O)CC1` (stereo partly drawn) [Example 280, 1-[4-(1-Hydroxy-1-methyl-ethyl)-cyclohexyl]-3-[(3S,3aR,6S,6aS)-6-(2-methyl-pyridin-3-yloxy)-hexa-hydro-furo[3,2-b]furan-3-yl]-urea]: the IC50 came out at 0.012 µM.
In the case of `O=C(NC1CCCCC1)N[C@H]1CO[C@H]2[C@@H]1OC[C@@H]2C#Cc1ccc2c(c1)OCO2` [Example 281, 1-((3S,3aR,6S,6aR)-6-benzo[1,3]dioxol-5-ylethynyl-hexahydro-furo[3,2-b]furan-3-yl)-3-cyclohexyl-urea], the IC50 stood at 0.075 µM.
Consider `O=C(NC1CCCCC1)NC1COC2C(C#Cc3ccccc3)COC12` [Example 282, 1-Cyclohexyl-3-((3S,3aR,6S,-6aR)-6-phenylethynyl-hexa-hydro-furo[3,2-b]furan-3-yl)-urea], for which the half-maximal inhibitory concentration (IC50) turned out to be 0.012 µM.
Turning to `CCCCOc1ccc(NC(=O)NC2COC3C(C#Cc4ccccc4)COC23)cc1` [Example 283, 1-(4-Butoxy-phenyl)-3-[(3S,3aR,6R)-6-((S)-phenylethynyl)-hexahydro-furo[3,2-b]furan-3-yl]-urea], the IC50 was found to be 0.07 µM.
Regarding `COc1cc(NC(=O)N[C@H]2CO[C@@H]3[C@@H]2OC[C@H]3C#Cc2ccccc2)cc(OC)c1` [Example 284, 1-(3,5-Dimethoxy-phenyl)-3-[(3S,3aR,6R)-6-((S)-phenylethynyl)-hexahydro-furo[3,2-b]furan-3-yl]-urea], the IC50 is 0.071 µM.
To `Cc1cc(C)cc(NC(=O)NC2COC3C(C#Cc4ccccc4)COC23)c1` [Example 285, 1-(3,5-Dimethyl-phenyl)-3-[(3S,3aR,6R)-6-((S)-phenylethynyl)-hexahydro-furo[3,2-b]furan-3-yl]-urea] belongs 0.021 µM; to `O=C(Nc1ccccc1)N[C@H]1CO[C@@H]2[C@@H]1OC[C@H]2C#Cc1ccccc1` [Example 286, 1-Phenyl-3-[(3S,3aR,6R)-6-((S)-phenylethynyl)-hexa-hydro-furo[3,2-b]furan-3-yl]-urea], 0.227 µM.
With `O=C(Nc1ccc(OCc2ccccc2)cc1)NC1COC2C(C#Cc3ccccc3)COC12` [Example 287, 1-(4-Benzyloxy-phenyl)-3-[(3S,3aR,6R)-6-((S)-phenylethynyl)-hexahydro-furo[3,2-b]furan-3-yl]-urea], the IC50 amounted to 0.082 µM.
To `O=C(NCc1ccc(F)cc1)N[C@H]1CO[C@@H]2[C@@H]1OC[C@H]2C#Cc1ccccc1` [Example 288, 1-(4-Fluoro-benzyl)-3-[(3S,3aR,6R)-6-((S)-phenylethynyl)-hexahydro-furo[3,2-b]furan-3-yl]-urea] belongs 0.147 µM; to `Cc1cccc(NC(=O)N[C@H]2CO[C@@H]3[C@@H]2OC[C@H]3C#Cc2ccccc2)c1` [Example 289, 1-[(3S,3aR,6R)-6-((S)-Phenylethynyl)-hexahydro-furo[3,2-b]furan-3-yl]-3-m-tolyl-urea], 0.035 µM.
For the molecule `O=C(Nc1ccc(Cl)c(Cl)c1)NC1COC2C(C#Cc3ccccc3)COC12` [Example 290, 1-(3,4-Dichloro-phenyl)-3-[(3S,3aR,6R)-6-((S)-phenylethynyl)-hexahydro-furo[3,2-b]furan-3-yl]-urea], the 50% inhibitory concentration (IC50) was determined as 0.013 µM.
Next, `Cc1cccc(CNC(=O)NC2COC3C(C#Cc4ccccc4)COC23)c1` [Example 291, 1-(3-Methyl-benzyl)-3-[(3S,3aR,6R)-6-((S)-phenylethynyl)-hexahydro-furo[3,2-b]furan-3-yl]-urea]: 0.037 µM; `O=C(Nc1ccc(F)cc1)NC1COC2C(C#Cc3ccccc3)COC12` [Example 292, 1-(4-Fluoro-phenyl)-3-[(3S,3aR,6R)-6-((S)-phenylethynyl)-hexahydro-furo[3,2-b]furan-3-yl]-urea]: 0.046 µM; `O=C(Nc1ccc2c(c1)OCO2)N[C@H]1CO[C@H]2[C@@H]1OC[C@@H]2C#Cc1ccccc1` [Example 293, 1-Benzo[1,3]dioxol-5-yl-3-((3S,3aR,6S,6aR)-6-phenylethynyl-hexahydro-furo[3,2-b]furan-3-yl)-urea]: 0.071 µM.
For the molecule `O=C(Nc1cccc(F)c1)N[C@H]1CO[C@H]2[C@@H]1OC[C@@H]2C#Cc1ccccc1` [Example 294, 1-(3-Fluoro-phenyl)-3-((3S,3aR,6S,6aR)-6-phenylethynyl-hexahydro-furo[3,2-b]furan-3-yl)-urea], the IC50 turned out to be 0.123 µM.
Take `O=C(Nc1ccc2c(c1)OCCO2)NC1COC2C(C#Cc3ccccc3)COC12` [Example 295, 1-(2,3-Dihydro-benzo[1,4]-dioxin-6-yl)-3-((3S,3aR,6S,-6aR)-6-phenylethynyl-hexa-hydro-furo[3,2-b]furan-3-yl)-urea]: the IC50 was found to be 0.112 µM.
In the case of `O=C(NCCc1cccs1)N[C@H]1CO[C@H]2[C@@H]1OC[C@@H]2C#Cc1ccccc1` [Example 296, 1-((3S,3aR,6S,6aR)-6-Phenylethynyl-hexahydro-furo[3,2-b]furan-3-yl)-3-(2-thiophen-2-yl-ethyl)-urea], the IC50 stood at 0.1 µM.
`O=C(NCCc1ccccc1)N[C@H]1CO[C@H]2[C@@H]1OC[C@@H]2C#Cc1ccccc1` [Example 297, 1-Phenethyl-3-((3S,3aR,6S,6aR)-6-phenylethynyl-hexahydro-furo[3,2-b]furan-3-yl)-urea]: the IC50 is 0.067 µM.
Consider `O=C(Nc1ccc(OC(F)(F)F)cc1)N[C@H]1CO[C@H]2[C@@H]1OC[C@@H]2C#Cc1ccccc1` [Example 298, 1-((3S,3aR,6S,6aR)-6-Phenylethynyl-hexahydro-furo[3,2-b]furan-3-yl)-3-(4-trifluoromethoxy-phenyl)-urea], for which the IC50 amounted to 0.025 µM.
On to `O=C(Nc1cccc(C(F)(F)F)c1)N[C@H]1CO[C@H]2[C@@H]1OC[C@@H]2C#Cc1ccccc1` [Example 299, 1-((3S,3aR,6S,6aR)-6-Phenylethynyl-hexahydro-furo[3,2-b]furan-3-yl)-3-(3-trifluoromethyl-phenyl)-urea], for which the IC50 was determined as 1.25 µM.
For `O=C(NC1CCCCC1)N[C@H]1CO[C@H]2[C@@H]1OC[C@@H]2C#Cc1ccccn1` [Example 300, 1-Cyclohexyl-3-((3S,3aR,6S,-6aR)-6-pyridin-2-ylethynyl-hexahydro-furo[3,2-b]furan-3-yl)-urea; trifluoroacetate], the IC50 amounted to 0.019 µM.
Next, `COc1cc(NC(=O)N[C@H]2CO[C@H]3[C@@H]2OC[C@@H]3C#Cc2ccsc2)cc(OC)c1` [Example 301, 1-(3,5-Dimethoxy-phenyl)-3-((3S,3aR,6S,6aR)-6-thiophen-3-ylethynyl-hexahydro-furo[3,2-b]furan-3-yl)-urea]: 0.104 µM; `Cc1cc(C)cc(NC(=O)N[C@H]2CO[C@H]3[C@@H]2OC[C@@H]3C#Cc2ccsc2)c1` [Example 302, 1-(3,5-Dimethyl-phenyl)-3-((3S,3aR,6S,6aR)-6-thiophen-3-ylethynyl-hexahydro-furo[3,2-b]furan-3-yl)-urea]: 0.072 µM.
For the molecule `O=C(Nc1ccccc1)NC1COC2C(C#Cc3ccsc3)COC12` [Example 303, 1-Phenyl-3-((3S,3aR,6S,-6aR)-6-thiophen-3-ylethynyl-hexahydro-furo[3,2-b]furan-3-yl)-urea], the IC50 amounted to 0.241 µM.
In the case of `O=C(NCc1ccc(F)cc1)N[C@H]1CO[C@H]2[C@@H]1OC[C@@H]2C#Cc1ccsc1` [Example 304, 1-(4-Fluoro-benzyl)-3-((3S,3aR,6S,6aR)-6-thiophen-3-ylethynyl-hexahydro-furo[3,2-b]furan-3-yl)-urea], the 50% inhibitory concentration (IC50) was 0.279 µM.
In the case of `Cc1cccc(CNC(=O)N[C@H]2CO[C@H]3[C@@H]2OC[C@@H]3C#Cc2ccsc2)c1` [Example 305, 1-(3-Methyl-benzyl)-3-((3S,3aR,6S,6aR)-6-thiophen-3-ylethynyl-hexahydro-furo[3,2-b]furan-3-yl)-urea], the IC50 amounted to 0.243 µM.
Take `O=C(Nc1ccc(F)cc1)N[C@H]1CO[C@H]2[C@@H]1OC[C@@H]2C#Cc1ccsc1` [Example 306, 1-(4-Fluoro-phenyl)-3-((3S,3aR,6S,6aR)-6-thiophen-3-ylethynyl-hexahydro-furo[3,2-b]furan-3-yl)-urea]: the IC50 was determined as 0.192 µM.
As to `O=C(Nc1ccccc1-c1ccccc1)N[C@H]1CO[C@H]2[C@@H]1OC[C@@H]2C#Cc1ccsc1` [Example 307, 1-Biphenyl-2-yl-3-((3S,3aR,6S,6aR)-6-thiophen-3-ylethynyl-hexahydro-furo[3,2-b]furan-3-yl)-urea], the IC50 was found to be 0.059 µM.
On to `O=C(Nc1ccc(C(F)(F)F)cc1)NC1COC2C(C#Cc3ccsc3)COC12` [Example 308, 1-((3S,3aR,6S,6aR)-6-Thio-phen-3-ylethynyl-hexahydro-furo[3,2-b]furan-3-yl)-3-(4-trifluoromethyl-phenyl)-urea], for which the IC50 came out at 0.048 µM.
